The test system of one experiment is Hep-3B cells. In words: Cellular assay: EPO secretion in Hep-3B cells. Type of experiment: cell-based, human. Set-up: EPO secretion, % of control compound: dose or concentration left out as unconfirmed. As to conditions: Homo sapiens, Hep3B, 24 h, EPO secretion as percentage of control compound 7-[(4-Chloro-phenyl)-(5-methyl-isoxazol-3-ylamino)-methyl]-quinolin-8-ol, read-out: Cellular % EPO Stimulation.

For a further experiment, the target named is human PHD2181-417 (Homo sapiens (Human), UniProt Q9GZT9). In words: PHD2 enzyme activity assay ([14C]-succinic acid production).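 Further: reaction ran 10 min with compound in Tris pH 7.5 buffer with catalase, DTT and ascorbate, labelled succinate freed of leftover 2-oxoglutarate by DNP precipitation, then beta counted.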 Type of experiment: biochemical. As to conditions: PHD2181-417 polypeptide, HIF-1α peptide 10 μM, [5-14C]-2-oxoglutaric acid; 30 min pre-incubation; tested 10 μM to 3 nM.

SMILES strings stand for the structures.

Sequence of human PHD2181-417 (Q9GZT9 181-417): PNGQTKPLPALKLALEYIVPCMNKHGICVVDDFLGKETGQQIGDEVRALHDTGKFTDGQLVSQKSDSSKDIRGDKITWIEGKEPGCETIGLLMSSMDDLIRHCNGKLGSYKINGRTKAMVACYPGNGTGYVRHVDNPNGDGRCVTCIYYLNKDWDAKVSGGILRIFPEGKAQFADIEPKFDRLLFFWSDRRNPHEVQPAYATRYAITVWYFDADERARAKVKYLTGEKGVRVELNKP

In the case of `O=C(O)c1cnn(-c2nc3cc(Oc4ccccc4)c(C(F)(F)F)cc3[nH]2)c1` [Example 56, 1-(5-Phenoxy-6-trifluoromethyl-1H-benzoimidazol-2-yl)-1H-pyrazole-4-carboxylic Acid], in the experiment on Hep-3B cells, the EPO secretion, % of control compound was 143%. In addition, the “Enzyme pIC50” value at human PHD2181-417 came to 7.2.

Consider `O=C(O)c1cnn(-c2nc3cc(Oc4ccccc4)c(Cl)cc3[nH]2)c1` [Example 57, 1-(6-Chloro-5-phenoxy-1H-benzoimidazol-2-yl)-1H-pyrazole-4-carboxylic Acid], for which the EPO secretion, % of control compound in the experiment on Hep-3B cells came to 55%. Moreover, at human PHD2181-417, the “Enzyme pIC50” value worked out at 6.9.

In the case of `Cc1ccc2c(n1)c(Br)cc1nc(-n3cc(C(=O)O)cn3)[nH]c12` [Example 58, 1-(5-Bromo-7-methyl-1H-imidazo[4,5-f]quinolin-2-yl)-1H-pyrazole-4-carboxylic Acid], the EPO secretion, % of control compound with Hep-3B cells was found to be 50%. For the same molecule, on human PHD2181-417, the “Enzyme pIC50” value stood at 7.2.

In the case of `O=C(O)c1cnn(-c2nc3cc(OCc4ccccc4)c(Cl)cc3[nH]2)c1` [Example 59, 1-(5-Benzyloxy-6-chloro-1H-benzoimidazol-2-yl)-1H-pyrazole-4-carboxylic Acid], in the experiment on Hep-3B cells, the EPO secretion, % of control compound was 55.9%. At human PHD2181-417, the “Enzyme pIC50” value stood at 6.4.

As to `Cc1cccc(Sc2cc3nc(-n4cc(C(=O)O)cn4)[nH]c3cc2Cl)c1` [Example 60, 1-(6-Chloro-5-m-tolylsulfanyl-1H-benzoimidazol-2-yl)-1H-pyrazole-4-carboxylic Acid], the EPO secretion, % of control compound in the experiment with Hep-3B cells is 42.3%. Besides, the “Enzyme pIC50” value at human PHD2181-417 was found to be 6.9.

As to `O=C(O)c1cnn(-c2nc3cc(Sc4ccc(Cl)cc4)c(Cl)cc3[nH]2)c1` [Example 61, 1-[6-Chloro-5-(4-chloro-phenylsulfanyl)-1H-benzoimidazol-2-yl]-1H-pyrazole-4-carboxylic Acid], in the experiment on Hep-3B cells, the EPO secretion, % of control compound amounted to 101%. Moreover, on human PHD2181-417, the “Enzyme pIC50” value stood at 7.07.

For the molecule `O=C(O)c1cnn(-c2nc3cc(Sc4ccccc4)c(Cl)cc3[nH]2)c1` [Example 62, 1-(6-Chloro-5-phenylsulfanyl-1H-benzoimidazol-2-yl)-1H-pyrazole-4-carboxylic Acid], the EPO secretion, % of control compound in the experiment with Hep-3B cells came to 45.8%. Further, the “Enzyme pIC50” value on human PHD2181-417 is 6.75.

As for `O=C(O)c1cnn(-c2nc3cc(Sc4ccc(Cl)c(Cl)c4)c(Cl)cc3[nH]2)c1` [Example 63, 1-[6-Chloro-5-(3,4-dichloro-phenylsulfanyl)-1H-benzoimidazol-2-yl]-1H-pyrazole-4-carboxylic Acid], the EPO secretion, % of control compound in the experiment with Hep-3B cells was 26.5%. Moreover, the “Enzyme pIC50” value on human PHD2181-417 is listed as 6.18.

For the molecule `COc1cccc(Sc2cc3nc(-n4cc(C(=O)O)cn4)[nH]c3cc2Cl)c1` [Example 64, 1-[6-Chloro-5-(3-methoxy-phenylsulfanyl)-1H-benzoimidazol-2-yl]-1H-pyrazole-4-carboxylic Acid], in the experiment on Hep-3B cells, the EPO secretion, % of control compound was 38.3%. Besides, the “Enzyme pIC50” value at human PHD2181-417 is on record as 6.9.

In the case of `COc1ccc(Sc2cc3nc(-n4cc(C(=O)O)cn4)[nH]c3cc2Cl)cc1` [Example 65, 1-[6-Chloro-5-(4-methoxy-phenylsulfanyl)-1H-benzoimidazol-2-yl]-1H-pyrazole-4-carboxylic Acid], in the experiment on Hep-3B cells, the EPO secretion, % of control compound is 56.3%. For the same molecule, at human PHD2181-417, the “Enzyme pIC50” value worked out at 6.6.

As to `O=C(O)c1cnn(-c2nc3cc(SCc4ccccc4)c(Cl)cc3[nH]2)c1` [Example 66, 1-(5-Benzylsulfanyl-6-chloro-1H-benzoimidazol-2-yl)-1H-pyrazole-4-carboxylic Acid], the EPO secretion, % of control compound in the experiment on Hep-3B cells is 41.6%. The “Enzyme pIC50” value at human PHD2181-417 was determined as 6.7.

With `CC(C)(C)c1ccc(CSc2cc3nc(-n4cc(C(=O)O)cn4)[nH]c3cc2Cl)cc1` [Example 67, 1-[5-(4-tert-Butyl-benzylsulfanyl)-6-chloro-1H-benzoimidazol-2-yl]-1H-pyrazole-4-carboxylic Acid], in the experiment on Hep-3B cells, the EPO secretion, % of control compound came to 11.7%. Also, the “Enzyme pIC50” value at human PHD2181-417 was found to be 7.2.

Consider `O=C(O)c1cnn(-c2nc3cc(SCc4ccc(F)cc4)c(Cl)cc3[nH]2)c1` [Example 68, 1-[6-Chloro-5-(4-fluoro-benzylsulfanyl)-1H-benzoimidazol-2-yl]-1H-pyrazole-4-carboxylic Acid], for which the EPO secretion, % of control compound with Hep-3B cells came out at 58.4%. In addition, the “Enzyme pIC50” value at human PHD2181-417 is 6.8.

For `O=C(O)c1cnn(-c2nc3cc(SCc4ccccc4Cl)c(Cl)cc3[nH]2)c1` [Example 69, 1-[6-Chloro-5-(2-chloro-benzylsulfanyl)-1H-benzoimidazol-2-yl]-1H-pyrazole-4-carboxylic Acid], the EPO secretion, % of control compound in the experiment on Hep-3B cells amounted to 85.3%. At human PHD2181-417, the “Enzyme pIC50” value amounted to 6.8.

On to `O=C(O)c1cnn(-c2nc3cc(SCCc4ccccc4)c(Cl)cc3[nH]2)c1` [Example 70, 1-(6-Chloro-5-phenethylsulfanyl-1H-benzoimidazol-2-yl)-1H-pyrazole-4-carboxylic Acid], for which the EPO secretion, % of control compound in the experiment with Hep-3B cells was 74.2%. Moreover, the “Enzyme pIC50” value at human PHD2181-417 is 6.7.

In the case of `CSc1cc2[nH]c(-n3cc(C(=O)O)cn3)nc2cc1C(F)(F)F` [Example 71, 1-(6-Methylsulfanyl-5-trifluoromethyl-1H-benzoimidazol-2-yl)-1H-pyrazole-4-carboxylic Acid], the EPO secretion, % of control compound in the experiment on Hep-3B cells is 114%. Moreover, the “Enzyme pIC50” value at human PHD2181-417 is 7.1.

For `CSc1cc2[nH]c(-n3cc(C(=O)O)cn3)nc2cc1F` [Example 74, 1-(5-Fluoro-6-methylsulfanyl-1H-benzoimidazol-2-yl)-1H-pyrazole-4-carboxylic Acid], the EPO secretion, % of control compound with Hep-3B cells amounted to 77.8%. In addition, the “Enzyme pIC50” value on human PHD2181-417 was 6.9.

Turning to `CSc1cc2[nH]c(-n3cc(C(=O)O)cn3)nc2cc1Cl` [Example 75, 1-(5-Chloro-6-methylsulfanyl-1H-benzoimidazol-2-yl)-1H-pyrazole-4-carboxylic Acid], in the experiment with Hep-3B cells, the EPO secretion, % of control compound stood at 106%. At human PHD2181-417, the “Enzyme pIC50” value was 7.

Regarding `CCSc1cc2[nH]c(-n3cc(C(=O)O)cn3)nc2cc1Cl` [Example 76, 1-(5-Chloro-6-ethylsulfanyl-1H-benzoimidazol-2-yl)-1H-pyrazole-4-carboxylic Acid], the EPO secretion, % of control compound with Hep-3B cells is 212%. At human PHD2181-417, the “Enzyme pIC50” value amounted to 6.9.

For `CC(C)Sc1cc2[nH]c(-n3cc(C(=O)O)cn3)nc2cc1Cl` [Example 77, 1-(5-Chloro-6-isopropylsulfanyl-1H-benzoimidazol-2-yl)-1H-pyrazole-4-carboxylic Acid], the EPO secretion, % of control compound in the experiment on Hep-3B cells is 153%. In addition, on human PHD2181-417, the “Enzyme pIC50” value was 6.8.

Turning to `CCCSc1cc2[nH]c(-n3cc(C(=O)O)cn3)nc2cc1Cl` [Example 78, 1-(5-Chloro-6-propylsulfanyl-1H-benzoimidazol-2-yl)-1H-pyrazole-4-carboxylic Acid], the EPO secretion, % of control compound in the experiment with Hep-3B cells worked out at 125%. Also, on human PHD2181-417, the “Enzyme pIC50” value amounted to 7.

Turning to `CSc1cc2[nH]c(-n3cc(C(=O)O)cn3)nc2cc1OC(F)(F)F` [Example 79, 1-(6-Methylsulfanyl-5-trifluoromethoxy-1H-benzoimidazol-2-yl)-1H-pyrazole-4-carboxylic Acid], the EPO secretion, % of control compound in the experiment on Hep-3B cells turned out to be 83.8%. For the same molecule, the “Enzyme pIC50” value at human PHD2181-417 worked out at 7.1.

As for `Cc1cccc(S(=O)(=O)c2cc3nc(-n4cc(C(=O)O)cn4)[nH]c3cc2Cl)c1` [Example 82, 1-[6-Chloro-5-(toluene-3-sulfonyl)-1H-benzoimidazol-2-yl]-1H-pyrazole-4-carboxylic Acid], the EPO secretion, % of control compound in the experiment on Hep-3B cells was found to be 85.3%. On human PHD2181-417, the “Enzyme pIC50” value was determined as 7.4.

In the case of `O=C(O)c1cnn(-c2nc3cc(S(=O)(=O)c4ccccc4)c(Cl)cc3[nH]2)c1` [Example 83, 1-(5-Benzenesulfonyl-6-chloro-1H-benzoimidazol-2-yl)-1H-pyrazole-4-carboxylic Acid], in the experiment with Hep-3B cells, the EPO secretion, % of control compound stood at 96.7%. Besides, at human PHD2181-417, the “Enzyme pIC50” value turned out to be 7.57.

As for `COc1ccc(S(=O)(=O)c2cc3nc(-n4cc(C(=O)O)cn4)[nH]c3cc2Cl)cc1` [Example 84, 1-[6-Chloro-5-(4-methoxy-benzenesulfonyl)-1H-benzoimidazol-2-yl]-1H-pyrazole-4-carboxylic Acid], the EPO secretion, % of control compound in the experiment with Hep-3B cells turned out to be 42.7%. Besides, at human PHD2181-417, the “Enzyme pIC50” value was 7.3.

Take `O=C(O)c1cnn(-c2nc3cc(S(=O)(=O)c4ccc(Cl)cc4)c(Cl)cc3[nH]2)c1` [Example 85, 1-[6-Chloro-5-(4-chloro-benzenesulfonyl)-1H-benzoimidazol-2-yl]-1H-pyrazole-4-carboxylic Acid]: the EPO secretion, % of control compound with Hep-3B cells amounted to 51.6%. Also, the “Enzyme pIC50” value at human PHD2181-417 is reported as 7.3.

In the case of `O=C(O)c1cnn(-c2nc3cc(S(=O)(=O)c4ccc(OC(F)(F)F)cc4)c(Cl)cc3[nH]2)c1` [Example 86, 1-[6-Chloro-5-(4-trifluoromethoxy-benzenesulfonyl)-1H-benzoimidazol-2-yl]-1H-pyrazole-4-carboxylic Acid], in the experiment with Hep-3B cells, the EPO secretion, % of control compound stood at 48.9%. Also, the “Enzyme pIC50” value at human PHD2181-417 is given as 7.3.

Turning to `O=C(O)c1cnn(-c2nc3cc(S(=O)(=O)c4ccc(Cl)c(Cl)c4)c(Cl)cc3[nH]2)c1` [Example 87, 1-[6-Chloro-5-(3,4-dichloro-benzenesulfonyl)-1H-benzoimidazol-2-yl]-1H-pyrazole-4-carboxylic Acid], in the experiment with Hep-3B cells, the EPO secretion, % of control compound turned out to be 32.4%. Moreover, the “Enzyme pIC50” value at human PHD2181-417 is recorded as 6.68.

With `COc1cccc(S(=O)(=O)c2cc3nc(-n4cc(C(=O)O)cn4)[nH]c3cc2Cl)c1` [Example 88, 1-[6-Chloro-5-(3-methoxy-benzenesulfonyl)-1H-benzoimidazol-2-yl]-1H-pyrazole-4-carboxylic Acid], in the experiment on Hep-3B cells, the EPO secretion, % of control compound turned out to be 69.4%. Besides, at human PHD2181-417, the “Enzyme pIC50” value is 7.4.

With `O=C(O)c1cnn(-c2nc3cc(S(=O)(=O)Cc4ccccc4)c(Cl)cc3[nH]2)c1` [Example 89, 1-(6-Chloro-5-phenylmethanesulfonyl-1H-benzoimidazol-2-yl)-1H-pyrazole-4-carboxylic Acid], in the experiment with Hep-3B cells, the EPO secretion, % of control compound was found to be 28.4%. For the same molecule, the “Enzyme pIC50” value at human PHD2181-417 was determined as 7.5.
